Experimental data published in US20170042152A1, “SAFENED HERBICIDAL COMPOSITIONS COMPRISING PYRIDINE CARBOXYLIC ACIDS” (priority 2015, published 2017).

Tests used:
lambsquarters (CHEAL) [1] = assay: Small plot field trial, weed growth reduction; format: in vivo, Chenopodium album; settings: 20 g ae/ha herbicide (triisopropanol amine salt), no safener, post-emergence, mean
durum wheat (TRZDU) = assay: Small plot field trial, crop safety; format: in vivo, Triticum durum; settings: 20 g ae/ha herbicide (triisopropanol amine salt), no safener, post-emergence, mean
Procedure: The triisopropanol amine salts of herbicides of formulas I-G-A, I-G-B and I-G-C were tested with and without cloquintocet-mexyl in small plot field trials across various ecozones to evaluate the crop safety of these compounds on […] cereals including winter wheat and durum wheat.
All herbicide treatments were applied post-emergence in the spring to early summer. Herbicides were applied with bicycle or tractor-mounted sprayers using carbon dioxide (CO2) as a propellant. The sprayers delivered a uniform spray pattern that provided thorough coverage of the foliage using a 150 or 200 L/ha spray volume. At the time of herbicide applications, winter wheat was at the two leaf growth stage and durum wheat was at the 2-3 leaf growth stage.
Phytotoxicity to cereal crops was visually assessed as percent overall injury, compared to an untreated control plot. The overall injury assessments were based on visual ratings of growth inhibition, chlorosis, and delay in maturity. At late ratings (54-57 days after application), percent visual seed head deformity and reduction in seed formation were also assessed. Trials were designed as randomized complete blocks with four replicates. In general, three to four replicates were assessed for each treatment.

Canada thistle (CIRAR) = assay: Greenhouse postemergence trial, weed efficacy; format: in vivo, Cirsium arvense; settings: herbicide 0 g ae/ha, 20-22 d
Procedure: (§1) Seeds of the desired test plant species were planted in Sun Gro MetroMix® 306 planting mixture, which typically has a pH of 6.0 to 6.8 and an organic matter content of about 30 percent, in plastic pots with a surface area of 103.2 square centimeters (cm^2). When required to ensure good germination and healthy plants, a fungicide treatment and/or other chemical or physical treatment was applied. The plants were grown for 7-36 days (d) in a greenhouse with an approximate 14-hour (h) photoperiod which was maintained at about 18° C. during the day and 17° C. during the night. Nutrients and water were added on a regular basis and supplemental lighting was provided with overhead metal halide 1000-Watt lamps as necessary. The plants were employed for testing when they reached the second or third true leaf stage.
(§2) Weighed amounts of technical material were dissolved in a volume of 97:3 volume per volume (v/v) acetone/dimethyl sulfoxide (DMSO) to stock solutions. […] Compound requirements are based upon a 12 milliliter (mL) application volume at a rate of 187 liters per hectare (L/ha). Stock solutions of the safeners were prepared following the same procedure. Spray solutions of the safeners and experimental compound mixtures were prepared by adding the stock solutions to the appropriate amount of dilution solution to form a 12 mL spray solution in two-way combinations. Formulated compounds were applied to the plant material with an overhead Mandel track sprayer equipped with 8002E nozzles calibrated to deliver 187 L/ha over an application area of 0.503 square meters (m^2) at a spray height of 18 inches (43 centimeters (cm)) above average plant canopy. […]
(§3) The treated plants and control plants were placed in a greenhouse as described above and watered by sub-irrigation to prevent wash-off of the test compounds. After 20-22 d, the condition of the test plants as compared with that of the control plants was determined visually and scored on a scale of 0 to 100 percent where 0 corresponds to no injury and 100 corresponds to complete kill. […]

[2] = tested on: bird's-eye speedwell (VERPE); assay: Greenhouse postemergence trial, weed efficacy; format: in vivo, Veronica persica; settings: herbicide 0 g ae/ha, 20-22 d
Procedure: as §1
(§4) Weighed amounts of technical material were dissolved in a volume of 97:3 volume per volume (v/v) acetone/dimethyl sulfoxide (DMSO) to stock solutions. […] Compound requirements are based upon a 12 milliliter (mL) application volume at a rate of 187 liters per hectare (L/ha). Stock solutions of the safeners were prepared following the same procedure. Spray solutions of the safeners and experimental compound mixtures were prepared by adding the stock solutions to the appropriate amount of dilution solution to form a 12 mL spray solution in two-way combinations. Formulated compounds were applied to the plant material with an overhead Mandel track sprayer equipped with 8002E nozzles calibrated to deliver 187 L/ha over an application area of 0.503 square meters (m^2) at a spray height of 18 inches (43 centimeters (cm)) above average plant canopy. Control plants were sprayed in the same manner with the solvent blank.
(§5) The treated plants and control plants were placed in a greenhouse as described above and watered by sub-irrigation to prevent wash-off of the test compounds. After 20-22 d, the condition of the test plants as compared with that of the control plants was determined visually and scored on a scale of 0 to 100 percent where 0 corresponds to no injury and 100 corresponds to complete kill. Colby's equation was used to determine the herbicidal effects expected from the mixtures.

spring barley (HORVS) = assay: Greenhouse postemergence safening trial, crop phytotoxicity; format: in vivo, Hordeum vulgare; settings: herbicide 0 g ae/ha, 20-22 d
Procedure: as §1, §4, §5

shepherd's purse (CAPBP) = assay: Greenhouse postemergence trial, weed efficacy; format: in vivo, Capsella bura-pastoris; settings: herbicide 0 g ae/ha, 20-22 d
Procedure: as §1, §4, §5

wild pansy (VIOTR) = assay: Greenhouse postemergence trial, weed efficacy; format: in vivo, Viola tricolor; settings: herbicide 0 g ae/ha, 20-22 d
Procedure: as §1, §4, §5

pigweed (AMARE) = assay: Greenhouse postemergence trial, weed efficacy; format: in vivo, Amaranthis retroflexus; settings: herbicide 0 g ae/ha, 20-22 d
Procedure: as §1, §2, §3

Russian thistle (SASKR) = assay: Greenhouse postemergence trial, weed efficacy; format: in vivo, Salsola iberica; settings: herbicide 0 g ae/ha, 20-22 d
Procedure: as §1, §4, §5

spring wheat (TRZAS) = assay: Greenhouse postemergence safening trial, crop phytotoxicity; format: in vivo, Triticum aestivum; settings: herbicide 0 g ae/ha, 20-22 d
Procedure: as §1, §4, §5

winter wheat (TRZAW) = assay: as above; format: in vivo, Triticum aestivum; settings: herbicide 0 g ae/ha, 20-22 d
Procedure: as §1, §4, §5

wild buckwheat (POLCO) = assay: Greenhouse postemergence trial, weed efficacy; format: in vivo, Polygonum convulvus; settings: herbicide 0 g ae/ha, 20-22 d
Procedure: as §1, §4, §5

wild mustard (SINAR) = assay: Greenhouse postemergence trial, weed efficacy; format: in vivo, Sinapis arvensis; settings: herbicide 0 g ae/ha, 20-22 d
Procedure: as §1, §4, §5

wild chamomile (MATCH) = assay: Greenhouse postemergence trial, weed efficacy; format: in vivo, Matricaria chamomilla; settings: herbicide 0 g ae/ha, 20-22 d
Procedure: as §1, §2, §3

kochia (KCHSC) = assay: Greenhouse postemergence trial, weed efficacy; format: in vivo, Kochia scoparia; settings: herbicide 0 g ae/ha, 20-22 d
Procedure: as §1, §4, §5

lambsquarters (CHEAL) [3] = assay: Greenhouse postemergence trial, weed efficacy; format: in vivo, Chenopodium album; settings: herbicide 0 g ae/ha, 20-22 d
Procedure: as §1, §4, §5

[4] = cloquintocet-mexyl 4.375 g ai/ha
[5] = cloquintocet-mexyl 8.75 g ai/ha
[6] = cloquintocet-mexyl 17.5 g ai/ha

CC(F)(F)c1nc(C(=O)O)c(Cl)c(N)c1F [formula I-G-C]
100 % of untreated: Growth reduction of CHEAL, % of untreated (lambsquarters (CHEAL) [1])
33.6 % of untreated: TRZDU Visual injury, % of untreated (durum wheat (TRZDU))
23.6 % of untreated: TRZDU Visual head deformation, % of untreated (durum wheat (TRZDU))

CCCCCC(C)OC(=O)COc1ccc(Cl)c2cccnc12 (centres unmarked) [Cloquintocet-mexyl, cloquintocet-mexyl]
0%: % visual injury CIRAR Ob (Canada thistle (CIRAR); cloquintocet-mexyl 20 g ai/ha) | % visual injury CIRAR Ob (Canada thistle (CIRAR); cloquintocet-mexyl 40 g ai/ha) | % visual injury CIRAR Ob (Canada thistle (CIRAR); cloquintocet-mexyl 80 g ai/ha) | % visual injury VERPE Ob [2, 4] | % visual injury VERPE Ob [2, 5] | % visual injury VERPE Ob [2, 6] | % visual injury VERPE Ob ([2]; cloquintocet-mexyl 35 g ai/ha) | % visual injury VERPE Ob ([2]; cloquintocet-mexyl 70 g ai/ha) | % visual injury HORVS Ob (spring barley (HORVS); [4]) | % visual injury HORVS Ob (spring barley (HORVS); [5]) | % visual injury HORVS Ob (spring barley (HORVS); [6]) | % visual injury HORVS Ob (spring barley (HORVS); cloquintocet-mexyl 20 g ai/ha) | % visual injury HORVS Ob (spring barley (HORVS); cloquintocet-mexyl 35 g ai/ha) | % visual injury HORVS Ob (spring barley (HORVS); cloquintocet-mexyl 40 g ai/ha) | % visual injury HORVS Ob (spring barley (HORVS); cloquintocet-mexyl 70 g ai/ha) | % visual injury HORVS Ob (spring barley (HORVS); cloquintocet-mexyl 80 g ai/ha) | % visual injury CAPBP Ob (shepherd's purse (CAPBP); cloquintocet-mexyl 20 g ai/ha) | % visual injury CAPBP Ob (shepherd's purse (CAPBP); cloquintocet-mexyl 40 g ai/ha) | % visual injury CAPBP Ob (shepherd's purse (CAPBP); cloquintocet-mexyl 80 g ai/ha) | % visual injury VIOTR Ob (wild pansy (VIOTR); [4]) | % visual injury VIOTR Ob (wild pansy (VIOTR); [5]) | % visual injury VIOTR Ob (wild pansy (VIOTR); [6]) | % visual injury VIOTR Ob (wild pansy (VIOTR); cloquintocet-mexyl 20 g ai/ha) | % visual injury VIOTR Ob (wild pansy (VIOTR); cloquintocet-mexyl 35 g ai/ha) | % visual injury VIOTR Ob (wild pansy (VIOTR); cloquintocet-mexyl 40 g ai/ha) | % visual injury VIOTR Ob (wild pansy (VIOTR); cloquintocet-mexyl 70 g ai/ha) | % visual injury VIOTR Ob (wild pansy (VIOTR); cloquintocet-mexyl 80 g ai/ha) | % visual injury AMARE Ob (pigweed (AMARE); cloquintocet-mexyl 20 g ai/ha) | % visual injury AMARE Ob (pigweed (AMARE); cloquintocet-mexyl 40 g ai/ha) | % visual injury AMARE Ob (pigweed (AMARE); cloquintocet-mexyl 80 g ai/ha) | % visual injury SASKR Ob (Russian thistle (SASKR); [4]) | % visual injury SASKR Ob (Russian thistle (SASKR); [5]) | % visual injury SASKR Ob (Russian thistle (SASKR); [6]) | % visual injury SASKR Ob (Russian thistle (SASKR); cloquintocet-mexyl 35 g ai/ha) | % visual injury SASKR Ob (Russian thistle (SASKR); cloquintocet-mexyl 70 g ai/ha) | % visual injury TRZAS Ob (spring wheat (TRZAS); [4]) | % visual injury TRZAS Ob (spring wheat (TRZAS); [5]) | % visual injury TRZAS Ob (spring wheat (TRZAS); [6]) | % visual injury TRZAS Ob (spring wheat (TRZAS); cloquintocet-mexyl 35 g ai/ha) | % visual injury TRZAS Ob (spring wheat (TRZAS); cloquintocet-mexyl 70 g ai/ha) | % visual injury TRZAW Ob (winter wheat (TRZAW); cloquintocet-mexyl 20 g ai/ha) | % visual injury TRZAW Ob (winter wheat (TRZAW); cloquintocet-mexyl 40 g ai/ha) | % visual injury TRZAW Ob (winter wheat (TRZAW); cloquintocet-mexyl 80 g ai/ha) | % visual injury POLCO Ob (wild buckwheat (POLCO); [4]) | % visual injury POLCO Ob (wild buckwheat (POLCO); [5]) | % visual injury POLCO Ob (wild buckwheat (POLCO); [6]) | % visual injury POLCO Ob (wild buckwheat (POLCO); cloquintocet-mexyl 35 g ai/ha) | % visual injury POLCO Ob (wild buckwheat (POLCO); cloquintocet-mexyl 70 g ai/ha) | % visual injury SINAR Ob (wild mustard (SINAR); cloquintocet-mexyl 20 g ai/ha) | % visual injury SINAR Ob (wild mustard (SINAR); cloquintocet-mexyl 40 g ai/ha) | % visual injury SINAR Ob (wild mustard (SINAR); cloquintocet-mexyl 80 g ai/ha) | % visual injury MATCH Ob (wild chamomile (MATCH); cloquintocet-mexyl 20 g ai/ha) | % visual injury MATCH Ob (wild chamomile (MATCH); cloquintocet-mexyl 40 g ai/ha) | % visual injury MATCH Ob (wild chamomile (MATCH); cloquintocet-mexyl 80 g ai/ha) | % visual injury KCHSC Ob (kochia (KCHSC); [4]) | % visual injury KCHSC Ob (kochia (KCHSC); [5]) | % visual injury KCHSC Ob (kochia (KCHSC); [6]) | % visual injury KCHSC Ob (kochia (KCHSC); cloquintocet-mexyl 20 g ai/ha) | % visual injury KCHSC Ob (kochia (KCHSC); cloquintocet-mexyl 35 g ai/ha) | % visual injury KCHSC Ob (kochia (KCHSC); cloquintocet-mexyl 40 g ai/ha) | % visual injury KCHSC Ob (kochia (KCHSC); cloquintocet-mexyl 70 g ai/ha) | % visual injury KCHSC Ob (kochia (KCHSC); cloquintocet-mexyl 80 g ai/ha) | % visual injury CHEAL Ob (lambsquarters (CHEAL) [3]; cloquintocet-mexyl 20 g ai/ha) | % visual injury CHEAL Ob (lambsquarters (CHEAL) [3]; cloquintocet-mexyl 40 g ai/ha) | % visual injury CHEAL Ob (lambsquarters (CHEAL) [3]; cloquintocet-mexyl 80 g ai/ha)
